Laboratory results: ChEMBL document CHEMBL1201862, “PubChem BioAssay data set” (2004)
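48-hour exposure; five concentrations; linearly interpolated endpoints. GI50 = concentration required for 50% inhibition of growth.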 Active and inactive are the calls of the source. Cut-off read from the data, not from the text of the source: active = GI50 up to about 1.1 µM and inactive = higher.

Tests used:
Assay in all cases: growth of human tumour cells (NCI), 48 h
MCF7 = system: MCF7
786-0 = system: 786-0
HT-29 = system: HT-29
M14 = system: M14
TK-10 = system: TK-10
HCT-15 = system: HCT-15
SW-620 = system: SW-620
RXF 393 = system: RXF 393
DU-145 = system: DU-145
OVCAR-8 = system: OVCAR-8
SNB-75 = system: SNB-75
MDA-N = system: MDA-N
CAKI-1 = system: CAKI-1
SR = system: SR
SN12C = system: SN12C
PC-3 = system: PC-3
UACC-257 = system: UACC-257
MDA-MB-231 = system: MDA-MB-231
COLO 205 = system: COLO 205
SF-295 = system: SF-295
SK-OV-3 = system: SK-OV-3
HOP-62 = system: HOP-62
KM12 = system: KM12
HL-60 = system: HL-60
NCI-H23 = system: NCI-H23
SF-268 = system: SF-268
EKVX = system: EKVX
RPMI-8226 = system: RPMI-8226
K562 = system: K562
CCRF-CEM = system: CCRF-CEM
A549 = system: A549
MOLT-4 = system: MOLT-4
T47D = system: T47D
Malme-3M = system: Malme-3M
UACC-62 = system: UACC-62
IGROV-1 = system: IGROV-1
SK-MEL-5 = system: SK-MEL-5
SK-MEL-28 = system: SK-MEL-28
HCC 2998 = system: HCC 2998
LOX IMVI = system: LOX IMVI

Row | Compound | GI50 (MCF7) | GI50 (786-0) | GI50 (HT-29) | GI50 (M14) | GI50 (TK-10) | GI50 (HCT-15) [µM] | GI50 (SW-620) | GI50 (RXF 393) | GI50 (DU-145) | GI50 (OVCAR-8) | GI50 (SNB-75) | GI50 (MDA-N) | GI50 (CAKI-1) | GI50 (SR) | GI50 (SN12C) | GI50 (PC-3) | GI50 (UACC-257) | GI50 (MDA-MB-231) | GI50 (SF-295) | GI50 (SK-OV-3) | also measured
1 | N#Cc1ccc(/N=C(/NCC(=O)O)Nc2ccc3ccccc3c2)cc1 | > 10 µM (inactive) | > 10 µM (inactive) | > 10 µM (inactive) | > 10 µM (inactive) | > 10 µM (inactive) | > 10 | > 10 µM (inactive) | > 10 µM (inactive) | > 10 µM (inactive) | > 10 µM (inactive) | > 10 µM (inactive) | > 10 µM (inactive) | > 10 µM (inactive) | > 10 µM (inactive) | > 10 µM (inactive) | > 10 µM (inactive) | > 10 µM (inactive) | > 10 µM (inactive) | > 10 µM (inactive) | > 10 µM (inactive) | GI50 (COLO 205): > 10 µM (inactive); GI50 (HOP-62): > 10 µM (inactive); GI50 (KM12): > 10 µM (inactive); GI50 (HL-60): > 10 µM (inactive); GI50 (NCI-H23): > 10 µM (inactive); GI50 (SF-268): > 10 µM (inactive); GI50 (EKVX): > 10 µM (inactive); GI50 (RPMI-8226): > 10 µM (inactive); GI50 (K562): > 10 µM (inactive); GI50 (CCRF-CEM): > 10 µM (inactive); GI50 (A549): > 10 µM (inactive); GI50 (MOLT-4): > 10 µM (inactive); GI50 (T47D): > 10 µM (inactive); GI50 (Malme-3M): > 10 µM (inactive); GI50 (UACC-62): > 10 µM (inactive); GI50 (IGROV-1): > 10 µM (inactive); GI50 (SK-MEL-5): > 10 µM (inactive); GI50 (SK-MEL-28): > 10 µM (inactive); GI50 (HCC 2998): > 10 µM (inactive)
2 | CSc1nc(C)c(CCOC(C)=O)c(N=P(c2ccccc2)(c2ccccc2)c2ccccc2)n1 | 3.49 µM (inactive) | > 10 µM (inactive) | 4.07 µM (inactive) | 5.61 µM (inactive) | > 10 µM (inactive) | 4.89 | 4.97 µM (inactive) | 2.89 µM (inactive) | > 10 µM (inactive) | 4.88 µM (inactive) | 4.28 µM (inactive) | 4.05 µM (inactive) | 8.26 µM (inactive) | 2.54 µM (inactive) | 6.78 µM (inactive) | 2.53 µM (inactive) | 6.18 µM (inactive) | 6.56 µM (inactive) | > 10 µM (inactive) | > 10 µM (inactive) | GI50 (HOP-62): 7.94 µM (inactive); GI50 (KM12): 3.72 µM (inactive); GI50 (HL-60): 2.82 µM (inactive); GI50 (NCI-H23): 3.77 µM (inactive); GI50 (SF-268): 4.12 µM (inactive); GI50 (EKVX): > 10 µM (inactive); GI50 (RPMI-8226): 3.14 µM (inactive); GI50 (K562): 3.42 µM (inactive); GI50 (CCRF-CEM): 3.89 µM (inactive); GI50 (LOX IMVI): 1.33 µM (inactive); GI50 (A549): 5.12 µM (inactive); GI50 (MOLT-4): 2.11 µM (inactive); GI50 (T47D): 4.24 µM (inactive); GI50 (Malme-3M): > 10 µM (inactive); GI50 (UACC-62): 5.75 µM (inactive); GI50 (IGROV-1): > 10 µM (inactive); GI50 (SK-MEL-5): 6.81 µM (inactive); GI50 (SK-MEL-28): > 10 µM (inactive); GI50 (HCC 2998): > 10 µM (inactive)
